Experiments:
[1] = human
[2] = human; remark: listed apart in the source
[3] = human; remark: listed apart in the source
[4] = Highest frequency of acute liver toxicity observed during clinical trials, expressed as a percentage. [column '% AIGUE' in source]; conditions: human
[5] = human; remark: listed apart in the source
[6] = human, serum
[7] = Proposed mechanism(s) of liver damage. [column 'MEC' in source]; conditions: human
[8] = human; remark: listed apart in the source
[9] = Times to onset, minimal and maximal, observed in the indexed observations. [column 'DELAI' in source]; conditions: human
[10] = human, serum, 4383 h
[11] = human; remark: listed apart in the source
[12] = human; remark: listed apart in the source
[13] = human; remark: listed apart in the source
[14] = Highest frequency of moderate liver toxicity observed during clinical trials, expressed as a percentage. [column '% BIOL' in source]; conditions: human
[15] = human, serum; remark: listed apart in the source
[16] = human; remark: listed apart in the source
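Wherever Hepatotoxicity (association with vascular disease) is given: count of indexed literature references reporting vascular liver injury in humans, e.g. peliosis hepatitis, hepatic veno-occlusive disease or Budd-Chiari syndrome.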
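Wherever Hepatotoxicity (benign tumour) is given: value is a count of indexed literature references citing a benign tumour confirmed by histopathology.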
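Wherever Hepatotoxicity (choleostasis) is given: human cholestatic liver injury, shown by histopathology or by peak ALT or AST elevation over alkaline phosphatase ratio below 2, value counts indexed literature reports.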
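Wherever Hepatotoxicity (chronic liver disease) is given: chronic liver injury confirmed by histopathology or persistently raised serum aminotransferase activity beyond 6 months, value given as the count of indexed literature references.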
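Wherever Hepatotoxicity (cirrhosis) is given: value is a count of indexed literature references reporting cirrhosis confirmed by histopathology.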
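Wherever Hepatotoxicity (cytolytic) is given: human cytolytic liver injury, shown by histopathology or by a ratio above 5 of peak ALT or AST elevation to alkaline phosphatase elevation, value counts indexed references.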
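Wherever Hepatotoxicity (granulomatous hepatitis) is given: value is a count of indexed literature references reporting granulomatous liver disease confirmed by histopathology.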
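Wherever Hepatotoxicity (malignant tumour) is given: malignant tumour confirmed by histopathology, value gives the count of indexed literature references reporting it.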
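Wherever Hepatotoxicity (severe hepatitis) is given: human clinical data: severe hepatitis, meaning potentially life-threatening liver failure or clinically observed cases, the value counts how many indexed literature references report it.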
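Wherever Hepatotoxicity (steatosis) is given: steatosis confirmed by histopathology, value is the count of indexed references.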

SMILES | Hepatotoxicity (choleostasis) [1] | Hepatotoxicity (steatosis) [2] | Hepatotoxicity (association with vascular disease) [3] | Hepatotoxicity (acute) [4] [%] | Hepatotoxicity (cytolytic) [5] | Hepatotoxicity (moderate) [6] | Hepatotoxicity (mechanism) [7] | Hepatotoxicity (granulomatous hepatitis) [8] | Hepatotoxicity (time to onset) [9] | Hepatotoxicity (chronic liver disease) [10] | Hepatotoxicity (malignant tumour) [11] | Hepatotoxicity (severe hepatitis) [12] | Hepatotoxicity (benign tumour) [13] | Hepatotoxicity (moderate) [14] [%] | Hepatotoxicity (acute) [15] | Hepatotoxicity (cirrhosis) [16]
CN[C@@H]1[C@H](O[C@H]2[C@H](O[C@H]3[C@H](O)[C@@H](O)[C@H](NC(=N)N)[C@@H](O)[C@@H]3NC(=N)N)O[C@@H](C)[C@]2(O)CO)O[C@@H](CO)[C@H](O)[C@H]1O [DIHYDROSTREPTOMYCIN] | 0 | 0 | 0 | 0 | 1 | 0 | Allergic | 0 | < 1 days | 0 | 0 | 0 | 0 | 0 | 1 | 0
C[C@H](CCc1ccccc1)NC[C@H](O)c1ccc(O)c(C(N)=O)c1 [DILEVALOL] | 0 | 0 | 0 | 0 | 1 | 1 | Allergic | 0 | 2 weeks | 0 | 0 | 1 | 0 | 2 | 1 | 0
Cc1c(N(C)CS(=O)(=O)[O-])c(=O)n(-c2ccccc2)n1C.[Na+] [DIPYRONE SODIUM] | 0 | 0 | 0 | 0 | 0 | 1 | Allergic | 0 | 2 hours - 18 days | 0 | 0 | 0 | 0 | 0 | 3 | 0
O=C1Nc2ccc(Cl)cc2[C@@](C#CC2CC2)(C(F)(F)F)O1 [EFAVIRENZ] | 2 | 0 | 0 | 10.9 | 8 | 2 | Allergic | 0 | 10 days - 4 weeks | 0 | 0 | 4 | 0 | 18.8 | 8 | 0
COc1cc(/C=C/C(=O)O)ccc1O [FERULATE] | 1 | 0 | 0 | 0 | 1 | 0 | Dose-dependant | 0 | 2 days - 5 years | 1 | 0 | 0 | 0 | 0 | 2 | 2
Nc1nc(=O)[nH]cc1F [FLUCYTOSINE] | 3 | 0 | 0 | 2 | 3 | 22 | Dose-dependant | 0 | 2 weeks - 2 months | 0 | 0 | 2 | 0 | 55 | 5 | 0
CC1CCc2cc(F)cc3c(=O)c(C(=O)O)cn1c23 (stereo not given) [FLUMEQUINE] | 0 | 0 | 0 | 0 | 0 | 0 | Allergic | 1 | 24 days | 0 | 0 | 0 | 0 | 0 | 0 | 0
NCC1(CC(=O)O)CCCCC1 [GABAPENTIN] | 3 | 1 | 0 | 2.4 | 1 | 2 | Allergic | 0 | 9 days - 4 months | 0 | 0 | 0 | 0 | 2.4 | 5 | 0
Cc1ccc(S(=O)(=O)NC(=O)NN2CC3CCCC3C2)cc1 (stereo not given) [GLICLAZIDE] | 1 | 0 | 0 | 0 | 2 | 1 | Allergic | 0 | 4 weeks - 5 weeks | 0 | 0 | 0 | 0 | 0 | 3 | 0
c1ccc2c(CCC3CCNCC3)c[nH]c2c1 [INDALPINE] | 1 | 1 | 0 | 0 | 1 | 1 | Allergic | 0 | 25 days - 4 months | 0 | 0 | 0 | 0 | 0 | 1 | 0

From ChEMBL document CHEMBL3137667, “[Drug-induced liver injury; fourteenth updated edition of the bibliographic database of liver injuries and related drugs]” (Gastroenterol Clin Biol, 2004)
